Assay [1] has as its system HT-29 (colon) cancer cell line. Kind of assay: MTT cell viability assay, HT-29. As to conditions: Homo sapiens, HT-29, 48 h, read-out: Cell growth %; for activity at 10 µM: HT-29, 10 µM; for activity at 50 µM: HT-29, 50 µM. The assay is classed as cell-based. The method, then:
(§1) Cell lines were purchased from the American Type Culture Collection (ATCC). Cell lines MDA-MB-231, HTB-54, DU-145, and BEAS-2B were cultured in RPMI 1640 medium (Gibco, Thermo Fisher Scientific, Gaithersburg, MD, USA) supplemented with 10% fetal bovine serum (FBS; Gibco), 100 units/mL penicillin, and […] streptomycin (Gibco). HT-29 cell line was grown in McCoy’s 5A (Gibco), 10% FBS, 100 units/mL penicillin, and 100 μg/mL streptomycin. Cells were maintained at 37 °C and 5% CO2. The culture medium was changed every three days.
(§2) The cell viability of each compound was measured by MTT colorimetric assay. Each compound was dissolved in DMSO at a concentration of 0.01 M. Each compound was tested at two different concentrations (10 and 50 µM) in MDA-MB-231 (breast), HTB-54 (lung), DU-145 (prostate), and HT-29 (colon) human cancer cell lines. Serial dilutions were prepared with supplemented culture medium. […] IC50 and selectivity indexes (SI) were determined.
(§3) Briefly, 1 × 10^4 tumor cells per well were grown in 96-well plates for 24 h. Then, these cells were incubated for 48 h with either DMSO (control) or a different concentration of each of the tested compounds. The cell viability was determined by adding 20 μL of MTT two hours and a half before the termination point. After this time, the culture medium was removed. The resulting formazan crystals were dissolved in 50 μL of DMSO, and the absorbance was measured at 570 nm. Results are expressed as % cell growth. The data were obtained from at least three independent experiments performed in quadruplicate.

For assay [2], the system named is DU-145 (prostate) cancer cell line. Kind of assay: MTT cell viability assay, DU-145. The assay is classed as cell-based, human. As to conditions: Homo sapiens, DU-145, 48 h; for activity at 10 µM: read-out: Cell growth %, DU-145, 10 µM, 48 h, MTT; for activity at 50 µM: read-out: Cell growth %, DU-145, 50 µM, 48 h, MTT. The method, then:
as §1, §2, §3

The nature of assay [3]: DPPH radical scavenging assay. It counts as biochemical. As to conditions: for DPPH Inhibitory%: acylselenourea analogs. The method, then: Different methods are available to quantify the antioxidant capacity of natural or novel molecules. Notable among these are the ABTS^•+ and DPPH^• methods, which measure the quenching efficiency in vitro for known concentrations of preformed radicals. In this work, the DPPH^• colorimetric assay was carried out. Measurements were recorded on a BioTeck PowerWave XS spectrophotometer (BioTeck Instruments, Winooski, VT, USA) and data were collected using KCJunior v.1.41. software (BioTeck Instruments, Winooski, VT, USA). Compounds with potent activity were selected to further determine their protective effect against ROS-induced cell death caused by H2O2.
DPPH colorimetric assay was performed to determine the in vitro radical scavenging activity of the acylselenourea derivatives. DPPH assay was performed as described by Svinyarov. For each acylselenourea, a stock solution of 1 mg/mL in dimethyl sulfoxide (DMSO) was made, and these solutions were used to prepare the different concentrations employed in the assay. The compounds were tested at two different concentrations (0.003 and 0.03 mg/mL). Intermediate solutions were prepared in methanol and a volume of 100 µL of each was added to each well of the plate. Then, 100 µL of DPPH^• (previously prepared at a concentration of 0.04 mg/mL in methanol and preserved in the dark) was added to the previous methanolic acylselenourea solutions. The discoloration of the purple radical to the yellow reduced form was followed at 517 nm at different time points (0, 5, 15, 30, 60, 90, and 120 min). Ascorbic acid and trolox were used as positive controls. All measurements were carried out in triplicate. Results are expressed as the percentage of the radicals scavenged, calculated using the following formula: (1) % DPPH radical scavenging=Acontrol - Asample/Acontrol × 100 where Acontrol refers to the absorbance of the negative control and Asample refers to the absorbance of the tested compounds. Results are expressed as percentage of DPPH radical scavenging ± SD.

Assay [4] has as its system MDA-MB-231 (breast) cancer cell line. Description: MTT cell viability assay, MDA-MB-231. As to conditions: Homo sapiens, MDA-MB-231, 48 h; for activity at 10 µM: read-out: Cell growth %, MDA-MB-231, 10 µM, 48 h, MTT; for activity at 50 µM: read-out: Cell growth %, MDA-MB-231, 50 µM, 48 h, MTT. The assay is classed as cell-based, human. On the procedure: as §1, §2, §3
Assay [5] deals with HTB-54 (lung) cancer cell line. Kind of assay: MTT cell viability assay, HTB-54. It counts as cell-based, human. As to conditions: for activity at 10 µM / activity at 50 µM / IC50: Homo sapiens, HTB-54, 48 h; for activity at 10 µM: read-out: Cell growth %, HTB-54, 10 µM, 48 h, MTT; for activity at 50 µM: read-out: Cell growth %, HTB-54, 50 µM, 48 h, MTT; for IC50: read-out: IC50 HTB-54, Lung, MTT, 48 h; for SI: IC50 (BEAS-2B)/IC50 (HTB-54). The method, then:
as §1, §2, §3

In assay [6] the test system is non-malignant BEAS-2B lung cell line. Kind of assay: MTT cell viability assay, BEAS-2B. It counts as cell-based. As to conditions: Homo sapiens, normal lung, 48 h. On the procedure:
as §1, §2, §3

Details of assay [7]: method as in PMID 36671001. As to conditions: selenoester analogs, 0.03 mg/mL, 90 min; cited from earlier work.
Assay [8] deals with MDA-MB-231, HT-29, HTB-54 and DU-145 cancer cell lines. Kind of assay: MTT cell viability assay, statements over the panel of cancer cell lines. The assay is classed as cell-based, human. As to conditions: 10 µM, over the four cancer cell lines. The method, then:
as §1, §2, §3

Like-named read-outs stand apart in the source and are kept apart here.

With `C#CCNC(=[Se])NC(=O)c1ccc2c(c1)OCO2` [Compound 8.III, N-(prop-2-in-1-ylcarbamoselenoyl)benzo[d][1,3]dioxole-5-carboxamide], the activity at 10 µM came to 40.3 ± 8.3% in assay [1], 63 ± 4.8% in assay [2], 61.9 ± 13.5% in assay [4] and 34.5 ± 9.1% in assay [5]. For the same molecule, the activity at 50 µM worked out at 18.1 ± 5.3% in assay [1], 12.3 ± 7.8% in assay [2], 19.1 ± 9.6% in assay [4] and 31.6 ± 6.1% in assay [5]. Further, the inhibition in assay [3] (0.003 mg/mL, 0 min) is 1.1 ± 2.3%; in assay [3] (0.003 mg/mL, 5 min) it was 2.4 ± 2.2%; in assay [3] (0.003 mg/mL, 15 min) it was 4.4 ± 2%; in assay [3] (0.003 mg/mL, 30 min) it was 6.2 ± 1.9%; in assay [3] (0.003 mg/mL, 60 min), 8.3 ± 1.8%; in assay [3] (0.003 mg/mL, 90 min), 9.2 ± 1.8%. For the same molecule, the inhibition in assay [3] (0.003 mg/mL, 120 min) was 9.7 ± 1.8%; in assay [3] (0.03 mg/mL, 0 min), 6.4 ± 2.5%; in assay [3] (0.03 mg/mL, 5 min), 17.9 ± 0.9%; in assay [3] (0.03 mg/mL, 15 min), 32.8 ± 0.9%; in assay [3] (0.03 mg/mL, 30 min), 45.2 ± 2%; in assay [3] (0.03 mg/mL, 60 min) it was 59.7 ± 3.8%. This molecule also came in with an inhibition in assay [3] (0.03 mg/mL, 120 min) of 72.5 ± 8.1%. Besides, the “DPPH Inhibitory%” value in assay [3] (0.03 mg/mL, 90 min) is on record as 62.4 ± 3.1%. For the same molecule, the IC50 in assay [5] is 21.7 ± 4.1 µM; in assay [6], over 100 µM. The SI in assay [5] is reported as over 4.6.

As for `C=CC[Se]C(=O)c1cccnc1` [C00001 3-pyridyl], in assay [7], the “DPPH Inhibitory%” value is 6.3 ± 2.9%.

As to `C#CCNC(=[Se])NC(=O)c1cccs1` [Compound 2.III, N-(prop-2-in-1-ylcarbamoselenoyl)thiophene-2-carboxamide], the activity at 10 µM was 43.4 ± 4.2% in assay [1], 12.8 ± 2.8% in assay [2], 27.4 ± 5.4% in assay [4] and 76.8 ± 6.8% in assay [5]. For the same molecule, the activity at 50 µM in assay [1] was found to be 20.6 ± 4%; in assay [2], 14.3 ± 6.7%; in assay [4], 9.48 ± 7.8%; in assay [5], 44.7 ± 3.5%. Moreover, the inhibition in assay [3] (0.003 mg/mL, 0 min) was 2.4 ± 0.6%; in assay [3] (0.003 mg/mL, 5 min) it was 4.3 ± 0.4%; in assay [3] (0.003 mg/mL, 15 min), 5.4 ± 0.3%; in assay [3] (0.003 mg/mL, 30 min), 6.5 ± 0.5%; in assay [3] (0.003 mg/mL, 60 min) it was 7.1 ± 0.5%; in assay [3] (0.003 mg/mL, 90 min), 7.3 ± 0.6%. The inhibition in assay [3] (0.003 mg/mL, 120 min) is 7.3 ± 0.6%; in assay [3] (0.03 mg/mL, 0 min) it was 14.5 ± 2.3%; in assay [3] (0.03 mg/mL, 5 min), 12.8 ± 3%; in assay [3] (0.03 mg/mL, 15 min), 19.8 ± 2.8%; in assay [3] (0.03 mg/mL, 30 min), 24.8 ± 2.6%; in assay [3] (0.03 mg/mL, 60 min), 30.2 ± 2.9%. The molecule further had an inhibition in assay [3] (0.03 mg/mL, 120 min) of 34.4 ± 2.9%. In addition, the “DPPH Inhibitory%” value in assay [3] (0.03 mg/mL, 90 min) is listed as 33.0 ± 3.1%. In addition, the figures for the IC50 in assay [5] and in assay [6] were 11.6 ± 1.6 µM and 26.6 ± 4 µM, respectively. In assay [5], this molecule registered an SI of 2.3.

Consider `C=CCNC(=[Se])NC(=O)c1ccco1` [Compound 1.II, N-(allylcarbamoselenoyl)furan-2-carboxamide], for which the activity at 10 µM turned out to be 95 ± 15.7% in assay [1], 81.5 ± 13.5% in assay [2], 80.4 ± 8.4% in assay [4] and 54.9 ± 11.2% in assay [5]. Also, the activity at 50 µM in assay [1] amounted to 16.6 ± 5.3%; in assay [2], 10.6 ± 5.7%; in assay [4] it was 14.5 ± 7.9%; in assay [5], 11.1 ± 5.2%. Also, the inhibition in assay [3] (0.003 mg/mL, 0 min) came to 1.7 ± 0.3%; in assay [3] (0.003 mg/mL, 5 min), 5.4 ± 0.5%; in assay [3] (0.003 mg/mL, 15 min) it was 8.8 ± 0.9%; in assay [3] (0.003 mg/mL, 30 min) it was 12.1 ± 1.2%; in assay [3] (0.003 mg/mL, 60 min), 16.5 ± 1.5%; in assay [3] (0.003 mg/mL, 90 min), 19.5 ± 1.7%. In addition, the inhibition amounted to 21.1 ± 1.4% in assay [3] (0.003 mg/mL, 120 min); 16 ± 1.9% in assay [3] (0.03 mg/mL, 0 min); 45.2 ± 5.1% in assay [3] (0.03 mg/mL, 5 min); 65.4 ± 4.1% in assay [3] (0.03 mg/mL, 15 min); 85.4 ± 4.9% in assay [3] (0.03 mg/mL, 30 min); 96.5 ± 0.6% in assay [3] (0.03 mg/mL, 60 min). In assay [3] (0.03 mg/mL, 120 min), this molecule showed an inhibition of 96.5 ± 0.5%. The “time to reach the highest DPPH inhibition” value in assay [3] (0.03 mg/mL) was found to be 60 min. In addition, in assay [3] (0.03 mg/mL, 90 min), the “DPPH Inhibitory%” value worked out at 96.6 ± 0.6%. Also, the cell growth % in assay [8] is 54.8–95.0%.

For the molecule `C=CC[Se]C(=O)c1ccccc1` [C00001 phenyl], the “DPPH Inhibitory%” value in assay [7] was 9.0 ± 1.2%.

These data come from publication PMC10376326, “Novel Acylselenourea Derivatives: Dual Molecules with Anticancer and Radical Scavenging Activity” (Antioxidants, 2023).
